Reference: US9833497B2, “Human originated EGF domain proteins and use of the same” (CHENGDU SOURCEBIO LIMITED-LIABILITY COMPANY, priority 2013, dated 2017)

Key:
Format in all cases: cell-based
Aeromonas hydrophila = assay: MIC against Gram-negative bacteria: Aeromonas hydrophila; conditions: for MIC A. hydrophila: 96-well plate, 37° C., 10 h
Summary of the method: (§1)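 First, colonies from LB agar were grown in LB at 37° C, 185 rpm, to McFarland turbidity 0.5, then centrifuged and resuspended in fresh LB. Next, wells received 5×10^5 CFU/mL bacteria plus two-fold serially diluted EGF domain protein (triplicate). Finally, plates were shaken at 37° C and the no-growth concentration taken as MIC.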

Serratia marcescens = assay: MIC against Gram-negative bacteria: Serratia marcescens; conditions: for MIC S. marcescens: 96-well plate, 37° C., 10 h
Summary of the method: as §1

Pseudomonas aeruginosa = assay: MIC against Gram-negative bacteria: Pseudomonas aeruginosa; conditions: for MIC P. aeruginosa: 96-well plate, 37° C., 10 h
Summary of the method: as §1

E. coli DH5α = assay: Antibacterial activity: MIC and growth curve against E. coli DH5α in 96-well plate; conditions: minimal inhibitory concentration against E. coli DH5α; 96-well plate, 5×10^5 CFU/mL, 37° C., judged after 8 h
Summary of the method: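 Log-phase bacteria (OD600 ~0.5) resuspended in LB at 5×10^5 CFU/mL, exposed to recombinant protein at 50, 25, 12.5 μg/mL final in triplicate, 37 °C shaking at 175 rpm. OD600 read every 30 min; MIC is lowest concentration showing no growth.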

Klebsiella pneumonia = assay: MIC against Gram-negative bacteria: Klebsiella pneumonia; conditions: for MIC K. pneumonia: 96-well plate, 37° C., 10 h
Summary of the method: as §1

Citrobacter diversus = assay: MIC against Gram-negative bacteria: Citrobacter diversus; conditions: for MIC C. diversus: 96-well plate, 37° C., 10 h
Summary of the method: as §1

Moraxella catarrhalis = assay: MIC against Gram-negative bacteria: Moraxella catarrhalis; conditions: for MIC M. catarrhalis: 96-well plate, 37° C., 10 h
Summary of the method: as §1

E. coli BL21 = assay: MIC against Gram-negative bacteria: E. coli BL21; conditions: for MIC E. coli BL21: 96-well plate, 37° C., 10 h
Summary of the method: as §1

Proteus mirabilis = assay: MIC against Gram-negative bacteria: Proteus mirabilis; conditions: for MIC P. mirabilis: 96-well plate, 37° C., 10 h
Summary of the method: as §1

Proteus vulgaris = assay: MIC against Gram-negative bacteria: Proteus vulgaris; conditions: for MIC P. vulgaris: 96-well plate, 37° C., 10 h
Summary of the method: as §1

Enterobacter cloacae = assay: MIC against Gram-negative bacteria: Enterobacter cloacae; conditions: for MIC E. cloacae: 96-well plate, 37° C., 10 h
Summary of the method: as §1

[1] = A. hydrophila, 10 h cultivation at 37° C., 5×10^5 CFU/mL
[2] = S. marcescens, 10 h cultivation at 37° C., 5×10^5 CFU/mL
[3] = P. aeruginosa, 10 h cultivation at 37° C., 5×10^5 CFU/mL
[4] = K. pneumonia, 10 h cultivation at 37° C., 5×10^5 CFU/mL
[5] = C. diversus, 10 h cultivation at 37° C., 5×10^5 CFU/mL
[6] = M. catarrhalis, 10 h cultivation at 37° C., 5×10^5 CFU/mL
[7] = E. coli BL21, 10 h cultivation at 37° C., 5×10^5 CFU/mL
[8] = P. mirabilis, 10 h cultivation at 37° C., 5×10^5 CFU/mL
[9] = P. vulgaris, 10 h cultivation at 37° C., 5×10^5 CFU/mL
[10] = E. cloacae, 10 h cultivation at 37° C., 5×10^5 CFU/mL

With “PRT730 (NGNSCSDFNGGCTHECVQEPFGAKCLCPLGFLLANDSKTCE; listed as Homo sapiens)” the “MIC A. hydrophila” value (Aeromonas hydrophila; 5×10^5 CFU/mL) was 25 µg/mL, the “MIC S. marcescens” value (Serratia marcescens; 5×10^5 CFU/mL) was 25 µg/mL and the “MIC P. aeruginosa” value (Pseudomonas aeruginosa; 5×10^5 CFU/mL) was 25 µg/mL. The MIC (E. coli DH5α) was 25 µg/mL, the “MIC K. pneumonia” value (Klebsiella pneumonia; 5×10^5 CFU/mL) was 25 µg/mL and the “MIC C. diversus” value (Citrobacter diversus; 5×10^5 CFU/mL) was 12.5 µg/mL. The “MIC M. catarrhalis” value (Moraxella catarrhalis; 5×10^5 CFU/mL) was 25 µg/mL, the “MIC E. coli BL21” value (E. coli BL21; 5×10^5 CFU/mL) was 12.5 µg/mL and the “MIC P. mirabilis” value (Proteus mirabilis; 5×10^5 CFU/mL) was 50 µg/mL. For the same substance, the “MIC P. vulgaris” value (Proteus vulgaris; 5×10^5 CFU/mL) was 12.5 µg/mL and the “MIC E. cloacae” value (Enterobacter cloacae; 5×10^5 CFU/mL) was 50 µg/mL.

With “PRT187 (KVDRCTSNPCANGGQCLNRGPSRMCRCRPGFTGTYCE; listed as Homo sapiens)” the “MIC (μg/mL) A. hydrophila” value (Aeromonas hydrophila; [1]) was 12.5 µg/mL, the “MIC (μg/mL) S. marcescens” value (Serratia marcescens; [2]) was 25 µg/mL and the “MIC (μg/mL) P. aeruginosa” value (Pseudomonas aeruginosa; [3]) was 25 µg/mL. The MIC (E. coli DH5α) was 25 µg/mL, the “MIC (μg/mL) K. pneumonia” value (Klebsiella pneumonia; [4]) was 12.5 µg/mL and the “MIC (μg/mL) C. diversus” value (Citrobacter diversus; [5]) was 25 µg/mL. The “MIC (μg/mL) M. catarrhalis” value (Moraxella catarrhalis; [6]) was 12.5 µg/mL, the “MIC (μg/mL) E. coli BL21” value (E. coli BL21; [7]) was 12.5 µg/mL and the “MIC (μg/mL) P. mirabilis” value (Proteus mirabilis; [8]) was 25 µg/mL. For the same substance, the “MIC (μg/mL) P. vulgaris” value (Proteus vulgaris; [9]) was 12.5 µg/mL and the “MIC (μg/mL) E. cloacae” value (Enterobacter cloacae; [10]) was 25 µg/mL.

With “PRT613 (CQCSDNIDPNAVGNCNRLTGECLKCIYNTAGFYCDRCKDGFFGNPLAPNPADKCKA; listed as Homo sapiens)” the “MIC A. hydrophila” value (Aeromonas hydrophila; 5×10^5 CFU/mL) was 12.5 µg/mL, the “MIC S. marcescens” value (Serratia marcescens; 5×10^5 CFU/mL) was 50 µg/mL and the “MIC P. aeruginosa” value (Pseudomonas aeruginosa; 5×10^5 CFU/mL) was 25 µg/mL. The MIC (E. coli DH5α) was 50 µg/mL, the “MIC K. pneumonia” value (Klebsiella pneumonia; 5×10^5 CFU/mL) was 50 µg/mL and the “MIC C. diversus” value (Citrobacter diversus; 5×10^5 CFU/mL) was 25 µg/mL. The “MIC M. catarrhalis” value (Moraxella catarrhalis; 5×10^5 CFU/mL) was 50 µg/mL, the “MIC E. coli BL21” value (E. coli BL21; 5×10^5 CFU/mL) was 12.5 µg/mL and the “MIC P. mirabilis” value (Proteus mirabilis; 5×10^5 CFU/mL) was 25 µg/mL. The “MIC P. vulgaris” value (Proteus vulgaris; 5×10^5 CFU/mL) was 12.5 µg/mL and the “MIC E. cloacae” value (Enterobacter cloacae; 5×10^5 CFU/mL) was 25 µg/mL.

With “PRT797 (WGPNCSVSCSCENGGSCSPEDGSCECAPGFRGPLCQ; listed as Homo sapiens)” the “MIC (μg/mL) A. hydrophila” value (Aeromonas hydrophila; [1]) was 12.5 µg/mL, the “MIC (μg/mL) S. marcescens” value (Serratia marcescens; [2]) was 12.5 µg/mL and the “MIC (μg/mL) P. aeruginosa” value (Pseudomonas aeruginosa; [3]) was 50 µg/mL. The MIC (E. coli DH5α) was 50 µg/mL, the “MIC (μg/mL) K. pneumonia” value (Klebsiella pneumonia; [4]) was 25 µg/mL and the “MIC (μg/mL) C. diversus” value (Citrobacter diversus; [5]) was 50 µg/mL. The “MIC (μg/mL) M. catarrhalis” value (Moraxella catarrhalis; [6]) was 12.5 µg/mL, the “MIC (μg/mL) E. coli BL21” value (E. coli BL21; [7]) was 12.5 µg/mL and the “MIC (μg/mL) P. mirabilis” value (Proteus mirabilis; [8]) was 12.5 µg/mL. For the same substance, the “MIC (μg/mL) P. vulgaris” value (Proteus vulgaris; [9]) was 12.5 µg/mL and the “MIC (μg/mL) E. cloacae” value (Enterobacter cloacae; [10]) was 50 µg/mL.

“PRT1377 (PASACPGGCGPRELCRAGQCVCVEGFRGPDC; listed as Homo sapiens)” was tested, and the “MIC against A. hydrophila” value (Aeromonas hydrophila; Aeromonas hydrophila, 5×10^5 CFU/mL, 10 h cultivation at 37° C.) was 50 µg/mL, the “MIC against S. marcescens” value (Serratia marcescens; Serratia marcescens, 5×10^5 CFU/mL, 10 h cultivation at 37° C.) was 12.5 µg/mL and the “MIC against P. aeruginosa” value (Pseudomonas aeruginosa; Pseudomonas aeruginosa, 5×10^5 CFU/mL, 10 h cultivation at 37° C.) was 12.5 µg/mL. The MIC (E. coli DH5α) was 25 µg/mL, the “MIC against K. pneumonia” value (Klebsiella pneumonia; Klebsiella pneumonia, 5×10^5 CFU/mL, 10 h cultivation at 37° C.) was 50 µg/mL and the “MIC against C. diversus” value (Citrobacter diversus; Citrobacter diversus, 5×10^5 CFU/mL, 10 h cultivation at 37° C.) was 12.5 µg/mL. For the same substance, the “MIC against M. catarrhalis” value (Moraxella catarrhalis; Moraxella catarrhalis, 5×10^5 CFU/mL, 10 h cultivation at 37° C.) was 50 µg/mL, the “MIC against E. coli BL21” value (E. coli BL21; E. coli BL21, 5×10^5 CFU/mL, 10 h cultivation at 37° C.) was 50 µg/mL and the “MIC against P. mirabilis” value (Proteus mirabilis; Proteus mirabilis, 5×10^5 CFU/mL, 10 h cultivation at 37° C.) was 12.5 µg/mL. For the same substance, the “MIC against P. vulgaris” value (Proteus vulgaris; Proteus vulgaris, 5×10^5 CFU/mL, 10 h cultivation at 37° C.) was 50 µg/mL and the “MIC against E. cloacae” value (Enterobacter cloacae; Enterobacter cloacae, 5×10^5 CFU/mL, 10 h cultivation at 37° C.) was 12.5 µg/mL.

“PRT955 (DVDECLLQPNACQNGGTCANRNGGYGCVCVNGWSGDDCS; listed as Homo sapiens)” was tested, and the MIC (Aeromonas hydrophila; A. hydrophila, 10 h cultivation at 37° C.) was 12.5 µg/mL, the MIC (Serratia marcescens; S. marcescens, 10 h cultivation at 37° C.) was 12.5 µg/mL and the MIC (Pseudomonas aeruginosa; P. aeruginosa, 10 h cultivation at 37° C.) was 25 µg/mL. It also gave an MIC (E. coli DH5α) of 50 µg/mL, an MIC (Klebsiella pneumonia; K. pneumonia, 10 h cultivation at 37° C.) of 12.5 µg/mL and an MIC (Citrobacter diversus; C. diversus, 10 h cultivation at 37° C.) of 25 µg/mL. For the same substance, the MIC (Moraxella catarrhalis; M. catarrhalis, 10 h cultivation at 37° C.) was 12.5 µg/mL, the MIC (E. coli BL21; E. coli BL21, 10 h cultivation at 37° C.) was 12.5 µg/mL and the MIC (Proteus mirabilis; P. mirabilis, 10 h cultivation at 37° C.) was 12.5 µg/mL. It also gave an MIC (Proteus vulgaris; P. vulgaris, 10 h cultivation at 37° C.) of 25 µg/mL and an MIC (Enterobacter cloacae; E. cloacae, 10 h cultivation at 37° C.) of 25 µg/mL.

For “PRT775 (SSLKCPDACNAQHKQCLIKKSGGAPECACVPGYQEDANGNCQ; listed as Homo sapiens)”, the “MIC (μg/mL) A. hydrophila” value (Aeromonas hydrophila; [1]) was 12.5 µg/mL, the “MIC (μg/mL) S. marcescens” value (Serratia marcescens; [2]) was 50 µg/mL and the “MIC (μg/mL) P. aeruginosa” value (Pseudomonas aeruginosa; [3]) was 50 µg/mL. The MIC (E. coli DH5α) was 12.5 µg/mL, the “MIC (μg/mL) K. pneumonia” value (Klebsiella pneumonia; [4]) was 12.5 µg/mL and the “MIC (μg/mL) C. diversus” value (Citrobacter diversus; [5]) was 50 µg/mL. For the same substance, the “MIC (μg/mL) M. catarrhalis” value (Moraxella catarrhalis; [6]) was 12.5 µg/mL, the “MIC (μg/mL) E. coli BL21” value (E. coli BL21; [7]) was 25 µg/mL and the “MIC (μg/mL) P. mirabilis” value (Proteus mirabilis; [8]) was 50 µg/mL. The “MIC (μg/mL) P. vulgaris” value (Proteus vulgaris; [9]) was 12.5 µg/mL and the “MIC (μg/mL) E. cloacae” value (Enterobacter cloacae; [10]) was 50 µg/mL.
